Assays:
MIA PaCa2 cells = experiment: Anti-proliferative effect on MIA PaCa2 cells by Cell Titer-Glo; assay type: cell-based; settings: Homo sapiens, MIA PaCa-2, 72 h, 3 days, read-out: MIA PaCa 2 (IC50, inhibition of proliferation in vitro)
Description: (§1) Test Example 2: Evaluation of Cell Proliferation Inhibitory Activity
2. Evaluation of the Anti-Proliferative Effect of Compounds on MIA PaCa2 Cells by the Cell Titer-Glo Method
(§2) Compound solutions of different concentration gradients were prepared. […] The cell growth group without compound was used as a positive control (maximum signal control) and the medium was used as a negative control (minimum signal control), while ensuring that the final level of DMSO in each reaction well was 0.2%. After removing the medium from the 384-well plate, 25 ul of the configured compound at different concentrations was transferred into the well plate and the compound and cells were incubated in the cell incubator at 37° C. with 5% CO2 for 3 days.
(§3) The 384-well plates were removed from the cell incubator and allowed to equilibrate for 1 h to room temperature. 25 ul of Cell Titer-Glo assay was added to each well, lysed on a shaker for 2 min and then read out (Luminescence) using a BMG PHERAStar after 10 min incubation. Calculate the inhibition rate from the luminescence signal: first calculate the average of the positive control (maximum signal control) and the negative control (minimum signal control).
(§4) was used to calculate the rate of inhibition of the cells by different concentrations of the compounds. The IC50 of the compound on cell activity inhibition was calculated by fitting a log(inhibitor) vs. response-Variable slope model to GraphPad Prism 6. The fitted equation was: Y=Bottom+(Top-Bottom)/(1+10^((Log IC50−X)*HillSlope)), wherein Y represents the rate of inhibition and X represents the concentration of the known compound after Log.
(§5) The results of the in vitro anti-cell proliferation assays of H1299 and MIA Paca-2 for the example compounds according to the method described above are shown in Table 2, wherein the IC50 of each compound was determined and classified according to the description as follows: […]

Wee1 protein = molecular target: T1, Wee1 protein (Homo sapiens, UniProt P30291); experiment: Binding of compound to Wee1 protein and Tracer 178 by TR-FRET (Wee1 kinase inhibitory activity); settings: 15 nM WEE1, 50 nM Tracer 178, read-out: IC50 (inhibitory activity against Wee1 kinase)
T1 construct: purchased Thermo Fisher PR7373A
Description: First, solutions of the compounds in different concentration gradients were prepared. The compounds were dissolved in DMSO and the compounds were diluted 4 folds with a total of 10 dose points and 2 parallel replicates for each concentration.
The IC50 for inhibition of enzyme activity by the compounds was then calculated using GraphPad Prism 6 and fitted with a log (inhibitor) vs. response-Variable slope mode. The fitting equation was: Y=Bottom+(Top−Bottom)/(1+10^((Log IC50−X)*HillSlope)), wherein Y represents the percentage of residual enzyme activity known and X represents the known concentration of compound after the logarithm.

H1299 cells = experiment: Anti-proliferative effect on H1299 cells by Cell Titer-Glo; assay type: cell-based; settings: Homo sapiens, NCI-H1299, 72 h, 3 days, read-out: H1299 (IC50, inhibition of proliferation in vitro)
Description: as §1
1. Evaluation of the Anti-Proliferative Effect of Compounds on H1299 Cells by the Cell Titer-Glo Method
as §2
as §3, with “1h” for “1 h”
as §4, with “Y=Bottom+(Top−Bottom)/(1+10^((Log” for “Y=Bottom+(Top-Bottom)/(1+10^((Log”, “where” for “wherein”
as §5

T1 sequence (P30291 whole entry): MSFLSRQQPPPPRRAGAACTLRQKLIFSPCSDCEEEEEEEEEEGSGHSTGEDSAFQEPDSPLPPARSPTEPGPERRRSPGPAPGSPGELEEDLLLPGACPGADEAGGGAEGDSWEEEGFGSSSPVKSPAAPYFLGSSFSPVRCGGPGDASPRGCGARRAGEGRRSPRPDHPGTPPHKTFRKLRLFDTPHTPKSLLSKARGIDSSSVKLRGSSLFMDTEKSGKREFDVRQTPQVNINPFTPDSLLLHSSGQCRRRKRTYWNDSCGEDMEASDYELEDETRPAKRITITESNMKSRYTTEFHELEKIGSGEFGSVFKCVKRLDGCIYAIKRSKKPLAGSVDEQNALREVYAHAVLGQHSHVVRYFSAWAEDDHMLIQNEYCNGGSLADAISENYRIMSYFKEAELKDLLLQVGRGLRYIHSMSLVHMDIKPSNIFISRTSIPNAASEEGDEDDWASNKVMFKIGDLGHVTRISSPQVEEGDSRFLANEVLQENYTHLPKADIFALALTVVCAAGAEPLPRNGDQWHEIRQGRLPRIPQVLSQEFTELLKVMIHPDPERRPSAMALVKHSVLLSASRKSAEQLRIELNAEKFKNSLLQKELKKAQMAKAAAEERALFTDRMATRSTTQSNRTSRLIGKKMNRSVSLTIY

SMILES	IC50 (MIA PaCa2 cells)	IC50 (Wee1 protein)	IC50 (H1299 cells)
C=CCn1c(=O)c2cnc(Nc3ccc(N4CC5CC(C4)N5CCO)cc3)nc2n1-c1cccc(C(C)(C)O)n1 [Compound 66]	100 to 1000 nM	5 to 10 nM	100 to 1000 nM
C=CCn1c(=O)c2cnc(Nc3ccc(N4CC5CC(CN(Cc6ccccc6)C5)C4)cc3)nc2n1-c1cccc(C(C)(C)O)n1 [Compound 22]	1000 to 2000 nM	10 to 100 nM	100 to 1000 nM
C=CCn1c(=O)c2cnc(Nc3ccc(C4CC45C(=O)C4CCN5CC4)cc3)nc2n1-c1cccc(N=S(C)(C)=O)n1 (centres unmarked) [Compound 47]	100 to 1000 nM	< 5 nM	100 to 1000 nM
C=CCn1c(=O)c2cnc(Nc3ccc(N4CC5CC(C4)N5C)c(F)c3)nc2n1-c1cccc(C(C)(C)O)n1 [Compound 78]	1000 to 2000 nM	10 to 100 nM	> 10000 nM
C=CCn1c(=O)c2cnc(Nc3cc(F)c(N4CC5CC(C4)N5C)c(F)c3)nc2n1-c1cccc(C(C)(C)O)n1 [Compound 79]	–	10 to 100 nM	> 10000 nM
C=CCn1c(=O)c2cnc(Nc3ccc(-n4cc(N(C)C)cn4)cc3)nc2n1-c1cccc(C(C)(C)O)n1 [Compound 36]	1000 to 2000 nM	10 to 100 nM	1000 to 2000 nM
C=CCn1c(=O)c2cnc(Nc3ccc(OC4CN5CCC4CC5)cc3)nc2n1-c1cccc(N=S(C)(C)=O)n1 (centres unmarked) [Compound 7]	–	< 5 nM	100 to 1000 nM
C=CCn1c(=O)c2cnc(Nc3ccc(N4CC5CC(C4)N5C(=O)OC)cc3)nc2n1-c1cccc(C(C)(C)O)n1 [Compound 69]	–	10 to 100 nM	100 to 1000 nM
C=CCn1c(=O)c2cnc(Nc3ccc(C4(O)CCN(C)CC4)cc3)nc2n1-c1cccc(C(C)(C)O)n1 [Compound 35]	1000 to 2000 nM	10 to 100 nM	2000 to 5000 nM
C=CCn1c(=O)c2cnc(Nc3ccc([C@H]4C[C@@]45C(=O)C4CCN5CC4)cc3)nc2n1-c1cccc(N=S(C)(C)=O)n1 [Compound 47a]	1000 to 2000 nM	10 to 100 nM	100 to 1000 nM
C=CCn1c(=O)c2cnc(Nc3cnn(-c4ccc(N(C)C)cc4)c3)nc2n1-c1cccc(C(C)(C)O)n1 [Compound 45]	5000 to 10000 nM	10 to 100 nM	> 10000 nM
C=CCn1c(=O)c2cnc(Nc3ccc(N4CC5CC(C4)N5C)cc3)nc2n1-c1cccc(C(C)(C)OC)n1 [Compound 60]	100 to 1000 nM	5 to 10 nM	100 to 1000 nM
C=CCn1c(=O)c2cnc(Nc3ccc(N(C)[C@H]4CN5CCC4CC5)cc3)nc2n1-c1cccc(C(C)(C)O)n1 [Compound 29]	> 10000 nM	5 to 10 nM	> 10000 nM
C=CCn1c(=O)c2cnc(Nc3ccc(N4CC5CC(C4)N5CC)cc3)nc2n1-c1cccc(C(C)(C)O)n1 [Compound 65]	100 to 1000 nM	5 to 10 nM	100 to 1000 nM
C=CCn1c(=O)c2cnc(Nc3ccc(N4CC5CC(C4)N5C4CN(C)C4)cc3)nc2n1-c1cccc(C(C)(C)O)n1 [Compound 63]	> 10000 nM	1000 to 10000 nM	> 10000 nM
C=CCn1c(=O)c2cnc(Nc3ccc(N4CC5CC(C4)N5C4COC4)cc3)nc2n1-c1cccc(C(C)(C)O)n1 [Compound 58]	100 to 1000 nM	5 to 10 nM	100 to 1000 nM
C=CCn1c(=O)c2cnc(Nc3ccc(C4CC45C(=O)C4CCN5CC4)cc3)nc2n1-c1cccc(C(C)(C)O)n1 (centres unmarked) [Compound 32]	2000 to 5000 nM	10 to 100 nM	2000 to 5000 nM
C=CCn1c(=O)c2cnc(Nc3ccc(N4CC5CC(C4)N5C(C)=O)cc3)nc2n1-c1cccc(C(C)(C)O)n1 [Compound 68]	100 to 1000 nM	10 to 100 nM	1000 to 2000 nM

Further lines, results first:

IC50 (MIA PaCa2 cells)	IC50 (Wee1 protein)	IC50 (H1299 cells)	SMILES
2000 to 5000 nM	5 to 10 nM	5000 to 10000 nM	C=CCn1c(=O)c2cnc(Nc3ccc(N(CC)CC(=O)N4CCN(C)CC4)cc3)nc2n1-c1cccc(C(C)(C)O)n1 [Compound 14]
100 to 1000 nM	10 to 100 nM	2000 to 5000 nM	C=CCn1c(=O)c2cnc(Nc3ccc(N4C[C@@H]5C[C@H]4CN5CCO)cc3)nc2n1-c1cccc(C(C)(C)O)n1 [Compound 38]
1000 to 2000 nM	5 to 10 nM	100 to 1000 nM	C=CCn1c(=O)c2cnc(Nc3ccc(N4C[C@H]5C[C@@H]4CO5)cc3)nc2n1-c1cccc(C(C)(C)O)n1 [Compound 20]
2000 to 5000 nM	10 to 100 nM	2000 to 5000 nM	C=CCn1c(=O)c2cnc(Nc3ccc(N4[C@@H]5C[C@H]4CN(C)C5)cc3)nc2n1-c1cccc(C(C)(C)O)n1 [Compound 43]
–	5 to 10 nM	2000 to 5000 nM	C=CCn1c(=O)c2cnc(Nc3ccc(N4CCN(C)CC4)cc3)nc2n1-c1cccc(C2(S(C)(=O)=O)CC2)n1 [Compound 1]
100 to 1000 nM	10 to 100 nM	100 to 1000 nM	C=CCn1c(=O)c2cnc(Nc3ccc(N4C[C@@H]5C[C@H]4CN5C(C)C)cc3)nc2n1-c1cccc(C(C)(C)O)n1 [Compound 41]
1000 to 2000 nM	< 5 nM	1000 to 2000 nM	C=CCn1c(=O)c2cnc(Nc3ccc(N4C[C@@H]5C[C@H]4CN5CC(F)(F)F)cc3)nc2n1-c1cccc(C(C)(C)O)n1 [Compound 30]
–	10 to 100 nM	1000 to 2000 nM	C=CCn1c(=O)c2cnc(Nc3ccc(N4CCN(C)CC4)cc3)nc2n1-c1ccc2c(F)cn(CC)c2n1 [Compound 73]
–	10 to 100 nM	1000 to 2000 nM	C=CCn1c(=O)c2cnc(Nc3ccc(N4CCN(C)CC4)cc3)nc2n1-c1ccc2nc(C)n(CC)c2n1 [Compound 75]
> 10000 nM	10 to 100 nM	> 10000 nM	C=CCn1c(=O)c2cnc(Nc3ccc(-c4cc(=O)[nH]c5c4N4CCC5CC4)cc3)nc2n1-c1cccc(C(C)(C)O)n1 [Compound 16]
1000 to 2000 nM	10 to 100 nM	1000 to 2000 nM	C=CCn1c(=O)c2cnc(Nc3ccc(-n4cc(N5CCCC5)cn4)cc3)nc2n1-c1cccc(C(C)(C)O)n1 [Compound 55]
–	5 to 10 nM	100 to 1000 nM	C=CCn1c(=O)c2cnc(Nc3ccc(N4CCN(C)CC4)cc3)nc2n1-c1ccc2c(C(C)=O)cn(CC)c2n1 [Compound 70]
100 to 1000 nM	10 to 100 nM	1000 to 2000 nM	C=CCn1c(=O)c2cnc(Nc3ccc(N4CC5CC4CN5C4CCN(C)CC4)c(C)c3)nc2n1-c1cccc(C(C)(C)O)n1 (centres unmarked) [Compound 21]
1000 to 2000 nM	5 to 10 nM	1000 to 2000 nM	C=CCn1c(=O)c2cnc(Nc3ccc(C4CCN(C)CC4)cc3)nc2n1-c1ccc2ccn(CC)c2n1 [Compound 77]
–	< 5 nM	100 to 1000 nM	C=CCn1c(=O)c2cnc(Nc3ccc(N4C[C@@H]5C[C@H]4CN5C)cc3)nc2n1-c1cccc(N=S(C)(C)=O)n1 [Compound 5]
1000 to 2000 nM	5 to 10 nM	100 to 1000 nM	C=CCn1c(=O)c2cnc(Nc3ccc(N4CC5CCC(C4)O5)cc3)nc2n1-c1cccc(C(C)(C)O)n1 [Compound 17]
> 10000 nM	10 to 100 nM	> 10000 nM	C=CCn1c(=O)c2cnc(Nc3ccc(N4CCN(C)CC4)cc3)nc2n1-c1ccc2c(n1)OC(C)(C)CO2 [Compound 74]
5000 to 10000 nM	10 to 100 nM	5000 to 10000 nM	C=CCn1c(=O)c2cnc(Nc3ccc(N4CCOc5ccccc54)cc3)nc2n1-c1cccc(C(C)(C)O)n1 [Compound 31]
1000 to 2000 nM	10 to 100 nM	100 to 1000 nM	C=CCn1c(=O)c2cnc(Nc3ccc(N4C[C@@H]5C[C@H]4CN5C)cc3)nc2n1-c1ccc2ccn(CC)c2n1 [Compound 76]
–	10 to 100 nM	5000 to 10000 nM	C=CCn1c(=O)c2cnc(Nc3ccc(N4CCN(C)CC4)cc3)nc2n1-c1cc2ccccc2s1 [Compound 72]
–	10 to 100 nM	2000 to 5000 nM	C=CCn1c(=O)c2cnc(Nc3ccc(N4CCN(C)CC4)cc3)nc2n1-c1ccc2c(n1)N(CC)C(=O)C2(C)C [Compound 71]
